In patent US12161608B2, “Methods of preventing and treating health conditions using cannabinoid anions” (NATURAL EXTRACTION SYSTEMS, LLC, priority 2019, dated 2024):

Columns and labels:
[1] = tested on: individual with arthritis; assay: Treatment of arthritis; format: in vivo, human; settings: glycerol tincture; self-report of one individual
Protocol: An individual who was unable to fill […] hydroxychloroquine prescription to treat the arthritis during the COVID-19 pandemic was administered a glycerol tincture containing the cannabidiol anion.

[2] = tested on: individual with knee pain associated with inflammation caused by trauma from a fall; assay: Treatment of knee pain; format: in vivo, human; settings: glycerol tincture, ingested; self-report of one individual
Protocol: An individual who presented with knee pain associated with inflammation caused by trauma from a fall was administered a glycerol tincture containing the cannabidiol anion.

[3] = tested on: individual with chronic pain; assay: Treatment of chronic pain; format: in vivo, human; settings: glycerol tincture; self-report of one individual
Protocol: An individual who presented with chronic pain was administered a glycerol tincture containing the cannabidiol anion.

[4] = tested on: individual with hip pain associated with sitting; assay: Treatment of chronic hip pain; format: in vivo, human; settings: glycerol tincture, ingested; self-report of one individual
Protocol: An individual who presented with hip pain associated with sitting was administered a glycerol tincture containing the cannabidiol anion.

[5] = tested on: individual with cramping and restless legs syndrome; assay: Treatment of cramping and restless legs syndrome; format: in vivo, human; settings: glycerol tincture before sleep; self-report of one individual
Protocol: An individual who presented with cramping and restless legs syndrome was administered a glycerol tincture containing the cannabidiol anion before sleep.

[6] = tested on: individual with hip pain and lower back pain associated with spinal fusion surgery; assay: Treatment of post laminectomy syndrome; format: in vivo, human; settings: glycerol tincture, ingested, self-report
Protocol: An individual with hip pain and lower back pain associated with spinal fusion surgery was administered a glycerol tincture containing the cannabidiol anion.

individual with anxiety = assay: Treatment of anxiety; format: in vivo, human
Protocol: An individual was administered a beverage containing the cannabidiol anion prior to driving to an airport to catch a flight that was scheduled to leave within thirty minutes of the arrival at the airport.
An individual who suffers from chronic anxiety was administered a glycerol tincture containing the cannabigerol anion.

[7] = tested on: dog that suffers from chronic seizures; assay: Treatment of epilepsy; format: in vivo; settings: report of the dog's owners
Protocol: A dog that suffers from chronic seizures was administered a glycerol tincture containing the cannabidiol anion immediately after the onset of a seizure.

[8] = tested on: individual with cancer pain caused by throat cancer; assay: Treatment of cancer pain; format: in vivo, human; settings: water containing the anion, ingested; self-report of one individual
Protocol: An individual who presented with cancer pain caused by throat cancer was administered water containing the cannabidiol anion (2-[6-isopropenyl-3-methylcyclohex-2-en-1-yl]-3-hydroxy-5-pentylphenolate).

[9] = tested on: individual with social anxiety associated with presenting at business meetings; assay: Treatment of social anxiety; format: in vivo, human; settings: beverage given before presenting at a business meeting; self-report
Protocol: An individual who presented with social anxiety associated with presenting at business meetings was administered a beverage containing the cannabidiol anion before presenting.

[10] = tested on: individual with back pain associated with driving for prolonged periods of time; assay: Treatment of acute back pain; format: in vivo, human; settings: glycerol tincture, ingested; self-report of one individual
Protocol: An individual who presented with back pain associated with driving for prolonged periods of time was administered a glycerol tincture containing the cannabidiol anion.

[11] = tested on: individual with chronic back pain associated with standing; assay: Treatment of chronic back pain; format: in vivo, human; settings: glycerol tincture, ingested; self-report of one individual
Protocol: An individual who presented with chronic back pain associated with standing was administered a glycerol tincture containing the cannabidiol anion.

[12] = tested on: individual with Inflammatory Bowel Disease; assay: Treatment of Inflammatory Bowel Disease; format: in vivo, human; settings: glycerol tincture; self-report of one individual
Protocol: An individual who presented with Inflammatory Bowel Disease was administered a glycerol tincture containing the cannabigerol anion.

[13] = tested on: individual with chronic insomnia; assay: Treatment of insomnia; format: in vivo, human; settings: glycerol tincture before sleep; self-report of one individual
Protocol: An individual who presented with chronic insomnia was administered a glycerol tincture containing the cannabigerol anion before sleep.

[14] = tested on: individual with Crohn's disease; assay: Treatment of Crohn's disease; format: in vivo, human; settings: glycerol tincture; self-report of one individual
Protocol: An individual who presented with Crohn's disease was administered a glycerol tincture containing the cannabigerol anion.

Compound	reported effectiveness at treating arthritis compared with hydroxychloroquine [1]	reported effect on mobility and knee pain [2]	reported effect in chronic pain (standard of living) [3]	reported effect on hip pain [4]	reported effect on sleep quality [5]	reported effect on hip pain and lower back pain [6]	reported anxiety during a drive to an airport (individual with anxiety; beverage given prior to driving, self-report of one individual)	effect on seizures ([7]; glycerol tincture immediately after the onset of a seizure)	effect on quality of life ([7]; glycerol tincture)	reported effect on throat pain [8]	reported effect on social anxiety and performance [9]	reported effect on back pain [10]	reported effect on chronic back pain [11]	reported effect on symptoms of Inflammatory Bowel Disease [12]	reported effect on chronic anxiety symptoms (individual with anxiety; glycerol tincture, individual who suffers from chronic anxiety, self-report)	reported effect on onset and quality of sleep [13]	reported effect on symptoms of Crohn's disease [14]
C=C(C)C1CCC(C)=CC1c1c(O)cc(CCCCC)cc1O (centres unmarked) [cannabidiol anion, 2-[6-isopropenyl-3-methylcyclohex-2-en-1-yl]-3-hydroxy-5-pentylphenolate]	more effective at treating their arthritis than hydroxychloroquine	improved mobility and alleviation of knee pain within minutes of ingestion	significant improvement in their standard of living	notable alleviation of the hip pain within minutes of ingestion	significant improvement in sleep quality	notable alleviation of hip pain and lower back pain within minutes of ingestion	notable absence of anxiety	both instantaneously and consistently arrested multiple seizures in the dog	significantly improved the dog's quality of life	notable alleviation of throat pain within minutes of ingestion	reduced anxiety and improved performance during the business meeting	notable alleviation of the back pain within minutes of ingestion	notable alleviation of the back pain within minutes of ingestion	–	–	–	–
CCCCCc1cc(O)c(CC=C(C)CCC=C(C)C)c(O)c1 [cannabigerol anion, 2-[3,7-dimethylocta-2,6-diene-1-yl]-3-hydroxy-5-pentylphenolate]	–	–	–	–	–	–	–	–	–	–	–	–	–	significant improvement in their symptoms of Inflammatory Bowel Disease	significant improvement in their anxiety symptoms	significant improvement in the onset and quality of their sleep	significant improvement in their symptoms of Crohn's disease
